Target: DNA polymerase catalytic subunit (Human cytomegalovirus) (UniProt P08546)
Assay: Inhibitory activity against Human Cytomegalovirus (HCMV) polymerase

DNA polymerase catalytic subunit (Human cytomegalovirus), sequence (P08546 whole entry, looked up): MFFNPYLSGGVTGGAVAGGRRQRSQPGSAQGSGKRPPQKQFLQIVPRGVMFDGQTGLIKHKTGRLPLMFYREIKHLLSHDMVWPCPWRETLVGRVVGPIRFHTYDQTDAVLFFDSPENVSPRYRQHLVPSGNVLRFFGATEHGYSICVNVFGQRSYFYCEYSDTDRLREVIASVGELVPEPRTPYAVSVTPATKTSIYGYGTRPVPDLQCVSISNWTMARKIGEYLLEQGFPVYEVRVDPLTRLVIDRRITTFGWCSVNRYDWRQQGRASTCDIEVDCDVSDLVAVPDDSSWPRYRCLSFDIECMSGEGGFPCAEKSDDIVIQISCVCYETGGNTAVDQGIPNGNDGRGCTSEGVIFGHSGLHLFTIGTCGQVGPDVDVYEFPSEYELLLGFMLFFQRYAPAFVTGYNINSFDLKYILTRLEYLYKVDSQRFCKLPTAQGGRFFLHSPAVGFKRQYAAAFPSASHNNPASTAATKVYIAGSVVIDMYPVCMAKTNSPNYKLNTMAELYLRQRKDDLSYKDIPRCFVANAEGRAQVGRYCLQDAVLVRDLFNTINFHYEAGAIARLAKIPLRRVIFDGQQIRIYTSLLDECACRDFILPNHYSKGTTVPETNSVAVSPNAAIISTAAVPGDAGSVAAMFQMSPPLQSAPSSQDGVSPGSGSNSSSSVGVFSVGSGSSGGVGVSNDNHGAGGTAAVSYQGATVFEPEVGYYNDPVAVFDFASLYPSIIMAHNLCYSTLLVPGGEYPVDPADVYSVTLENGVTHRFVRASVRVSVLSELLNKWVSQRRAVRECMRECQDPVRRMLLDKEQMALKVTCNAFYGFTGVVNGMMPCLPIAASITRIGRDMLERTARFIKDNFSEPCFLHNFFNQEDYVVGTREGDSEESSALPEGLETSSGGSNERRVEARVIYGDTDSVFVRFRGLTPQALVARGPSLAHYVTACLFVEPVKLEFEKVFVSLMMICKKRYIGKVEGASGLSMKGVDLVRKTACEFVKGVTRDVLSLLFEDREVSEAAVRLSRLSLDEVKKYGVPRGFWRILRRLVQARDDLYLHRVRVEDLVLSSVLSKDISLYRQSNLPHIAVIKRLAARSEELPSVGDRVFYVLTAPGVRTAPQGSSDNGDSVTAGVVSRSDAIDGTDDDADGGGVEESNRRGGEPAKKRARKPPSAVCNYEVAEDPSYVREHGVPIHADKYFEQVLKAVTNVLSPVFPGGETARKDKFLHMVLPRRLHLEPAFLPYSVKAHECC

`O=C(Nc1ccc(Cl)cc1)c1cc2ccccc2cc1O` [3-Hydroxy-naphthalene-2-carboxylic acid (4-chloro-phenyl)-amide] was tested. Which IC50 did it give?
Its IC50 is 69 µM.

With `O=C(Nc1cccc([N+](=O)[O-])c1)c1cc2ccccc2cc1O` as the compound, how does the IC50 read?
The IC50 was 12 µM.

For `O=C(Nc1cccnc1)c1cc2ccccc2cc1O` [3-Hydroxy-naphthalene-2-carboxylic acid pyridin-3-ylamide], which IC50 is on record?
Its IC50 is greater than 100 µM.

With `O=C(Nc1ccc([N+](=O)[O-])cc1)c1ccc2ccccc2c1` [Naphthalene-2-carboxylic acid (4-nitro-phenyl)-amide] as the compound, how does the IC50 read?
The IC50 was greater than 100 µM.

With `COc1cc2ccccc2cc1C(=O)NCc1ccc(Cl)cc1` [3-Methoxy-naphthalene-2-carboxylic acid 4-chloro-benzylamide] as the compound, how does the IC50 read?
The IC50 was 8 µM.

Which IC50 does the source give for `O=C(NCc1ccc([N+](=O)[O-])cc1)c1cc2cccc(O)c2cc1O` [3,5-Dihydroxy-naphthalene-2-carboxylic acid 4-nitro-benzylamide] here?
The IC50 was 3.8 µM.

For `COc1ccc2cc(O)c(C(=O)Nc3nc(-c4cccc([N+](=O)[O-])c4)cs3)cc2c1` [3-Hydroxy-7-methoxy-naphthalene-2-carboxylic acid [4-(3-nitro-phenyl)-thiazol-2-yl]-amide], which IC50 is on record?
The IC50 was 2.4 µM.

`COc1ccc2cc(O)c(C(=O)Nc3nc(-c4ccc(Cl)cc4)cs3)cc2c1` [3-Hydroxy-7-methoxy-naphthalene-2-carboxylic acid [4-(4-chloro-phenyl)-thiazol-2-yl]-amide] was tested. Which IC50 did it give?
Its IC50 is 6 µM.

For `O=C(NCc1ccc(Cl)cc1)c1cc2ccccc2cc1O` [3-Hydroxy-naphthalene-2-carboxylic acid 4-chloro-benzylamide], which IC50 is on record?
The IC50 was 52 µM.

`COc1ccc(NC(=O)c2cc3ccccc3cc2O)cc1` was tested. Which IC50 did it give?
Its IC50 is 56 µM.

For `COc1ccc2cc(O)c(CNCc3ccc(Cl)cc3)cc2c1` [3-[(4-Chloro-benzylamino)-methyl]-6-methoxy-naphthalen-2-ol], which IC50 is on record?
The IC50 was greater than 100 µM.

`COc1cc2ccccc2cc1C(=O)Nc1ccc([N+](=O)[O-])cc1` [3-Methoxy-naphthalene-2-carboxylic acid (4-nitro-phenyl)-amide] was tested. Which IC50 did it give?
Its IC50 is greater than 100 µM.

`COc1ccc2cc(O)c(C(=O)NCc3ccc([N+](=O)[O-])cc3)cc2c1` [3-Hydroxy-7-methoxy-naphthalene-2-carboxylic acid 4-nitro-benzylamide] was tested. Which IC50 did it give?
The IC50 was 0.82 µM.

How did the IC50 turn out when `O=C(NCCc1ccc(Cl)cc1)c1cc2ccccc2cc1O` [3-Hydroxy-naphthalene-2-carboxylic acid [2-(4-chloro-phenyl)-ethyl]-amide] was run?
Its IC50 is greater than 100 µM.

With `O=C(NCc1ccc([N+](=O)[O-])cc1)c1cc2cc(O)ccc2cc1O` [3,7-Dihydroxy-naphthalene-2-carboxylic acid 4-nitro-benzylamide] as the compound, how does the IC50 read?
The IC50 was 10.6 µM.

Which IC50 does the source give for `O=C(Nc1ccccc1)c1cc2ccccc2cc1O` [3-Hydroxy-naphthalene-2-carboxylic acid phenylamide] here?
The IC50 was greater than 100 µM.

`O=C(NCc1ccc(Cl)cc1)c1ccc2ccccc2c1O` [1-Hydroxy-naphthalene-2-carboxylic acid 4-chloro-benzylamide] was tested. Which IC50 did it give?
Its IC50 is 13 µM.

How did the IC50 turn out when `O=C(Nc1ccc(Cl)cc1)c1ccc2ccccc2c1O` [1-Hydroxy-naphthalene-2-carboxylic acid (4-chloro-phenyl)-amide] was run?
Its IC50 is 37 µM.

Which IC50 does the source give for `O=C(Nc1ccc(Br)cc1)c1cc2ccccc2cc1O` [3-Hydroxy-naphthalene-2-carboxylic acid (4-bromo-phenyl)-amide] here?
Its IC50 is 22 µM.

With `COc1ccc2cc(O)c(C(=O)Nc3nnc(Cc4ccc(Cl)cc4)s3)cc2c1` [3-Hydroxy-7-methoxy-naphthalene-2-carboxylic acid [5-(4-chloro-benzyl)-[1,3,4]thiadiazol-2-yl]-amide] as the compound, how does the IC50 read?
Its IC50 is 4 µM.

`O=C(NCc1ccc([N+](=O)[O-])cc1)c1cc2ccccc2cc1O` [3-Hydroxy-naphthalene-2-carboxylic acid 4-nitro-benzylamide] was tested. Which IC50 did it give?
The IC50 was 12 µM.

With `O=C(NCc1ccc(Cl)cc1)c1ccc2ccccc2c1` [Naphthalene-2-carboxylic acid 4-chloro-benzylamide] as the compound, how does the IC50 read?
The IC50 was greater than 100 µM.

How did the IC50 turn out when `O=C(NCc1ccc([N+](=O)[O-])cc1)c1cc2cc(Br)ccc2c(Br)c1O` [4,7-Dibromo-3-hydroxy-naphthalene-2-carboxylic acid 4-nitro-benzylamide] was run?
The IC50 was 2.9 µM.

For `Nc1cccc(NC(=O)c2cc3ccccc3cc2O)c1` [3-Hydroxy-naphthalene-2-carboxylic acid (3-amino-phenyl)-amide], which IC50 is on record?
Its IC50 is greater than 100 µM.

`O=C(Nc1ccccn1)c1cc2ccccc2cc1O` [3-Hydroxy-naphthalene-2-carboxylic acid pyridin-2-ylamide] was tested. Which IC50 did it give?
The IC50 was greater than 100 µM.

For `COc1ccc2cc(O)c(C(=O)NCc3ccc(Cl)cc3)cc2c1` [3-Hydroxy-7-methoxy-naphthalene-2-carboxylic acid 4-chloro-benzylamide], which IC50 is on record?
The IC50 was 0.76 µM.

`O=C(NCc1ccc(Cl)cc1)c1cc2cccc(O)c2cc1O` [3,5-Dihydroxy-naphthalene-2-carboxylic acid 4-chloro-benzylamide] was tested. Which IC50 did it give?
The IC50 was 3.3 µM.

How did the IC50 turn out when `O=C(NCc1ccc(Cl)cc1)c1cc2cc(O)ccc2cc1O` [3,7-Dihydroxy-naphthalene-2-carboxylic acid 4-chloro-benzylamide] was run?
Its IC50 is 2.4 µM.

With `O=C(Nc1ccc([N+](=O)[O-])cc1)c1cc2ccccc2cc1O` [3-Hydroxy-naphthalene-2-carboxylic acid (4-nitro-phenyl)-amide] as the compound, how does the IC50 read?
Its IC50 is 22 µM.

With `O=C(NCCc1ccc([N+](=O)[O-])cc1)c1cc2ccccc2cc1O` [3-Hydroxy-naphthalene-2-carboxylic acid [2-(4-nitro-phenyl)-ethyl]-amide] as the compound, how does the IC50 read?
The IC50 was greater than 100 µM.

How did the IC50 turn out when `COc1ccc2cc(O)c(C(=O)Nc3ncc(Cl)s3)cc2c1` [3-Hydroxy-7-methoxy-naphthalene-2-carboxylic acid (5-chloro-thiazol-2-yl)-amide] was run?
Its IC50 is 59 µM.

For `COCOc1cc2ccccc2cc1C(=O)Nc1ccc([N+](=O)[O-])cc1` [3-Methoxymethoxy-naphthalene-2-carboxylic acid (4-nitro-phenyl)-amide], which IC50 is on record?
The IC50 was greater than 100 µM.

For `COc1ccc2cc(O)c(C(=O)Nc3nc4c(Cl)cccc4s3)cc2c1` [3-Hydroxy-7-methoxy-naphthalene-2-carboxylic acid (4-chloro-benzothiazol-2-yl)-amide], which IC50 is on record?
The IC50 was 6.4 µM.

`O=C(NCc1ccc([N+](=O)[O-])cc1)c1ccc2ccccc2c1O` [1-Hydroxy-naphthalene-2-carboxylic acid 4-nitro-benzylamide] was tested. Which IC50 did it give?
Its IC50 is 14.5 µM.

How did the IC50 turn out when `N#Cc1ccc(NC(=O)c2cc3ccccc3cc2O)cc1` [3-Hydroxy-naphthalene-2-carboxylic acid (4-cyano-phenyl)-amide] was run?
The IC50 was 19 µM.
